Laboratory results as given in patent publication US8795734B2, “Hydrophobic nanotubes and nanoparticles as transporters for the delivery of drugs into cells” (The Board of Trustees of the Leland Stanford Junior …, priority 2005, dated 2014).

Assays:
[1] = tested on: 4188 cells; experiment: Cell density, cell death and proliferation of lymphoma cells after c-myc siRNA delivery; format: cell-based, mice; conditions: approximately 24 h treatment, light microscopy
Protocol: These conjugates were used to treat T-cell lymphoma cells, 4188 cells, which were derived from mice overexpressing human myc. Control experiments were also performed where the 4188 cells were exposed to a mixture of SWNT and siRNAmyc (no covalent linkage), to lipofectamine-siRNAmyc complex or to the antibiotic doxicycline (DOX). The 4188 cells used in this experiment had been previously engineered to be tet-regulatable such that the myc gene can be turned off by treatment with DOX.
The 4188 cells are non-adherent cells, typically cultured in RPMI 1640 medium supplemented with fetal bovine serum, penicillin/streptomycin and betamercaptoethanol. The cells were engineered to have tet-regulatable MYC, which can be regulated by the antibiotic doxicycline (DOX). 4188 cells are further described at Jain, M. et al. Sustained loss of a neoplastic phenotype by brief inactivation of MYC. Science 297, 102-104 (2002). […]
The cell proliferation was determined by using the CellTiterA96 assay (Promega). […]
Cell death was monitored in the cells by cell cytometry. […]

[2] = tested on: myc; experiment: Western blot of myc after c-myc siRNA delivery in 4188 cells; format: cell-based
Protocol: Typical incubations were carried out by incubating 4188 cells with the NT conjugates for periods ranging from 12-14 h at 37° C. and 5% CO2 atmosphere. In addition to our positive incubation with our disulfide containing conjugate, SWNT-SS-siRNAmyc (typical [NT} ≈20 nM and [siRNA] ≈500 nM in incubation), control incubations were also carried out with DOX at a concentration 2 ng/mL, commercially available transfecting agent lipofectamine-myc complex and finally with a mixture of SWNT suspension and myc siRNA solution.
The proliferation of the cells was also examined by the use of a colorimetric MTS-based assay. […] In order to verify that the decrease in cell viability and proliferation was in fact a result of the knockdown of myc in the lymphoma cells, western blots were performed on the respective cellysates. The myc band was absent for the SWNT-SS-siRNAmyc and DOX treated cell.

For `C[C@H]1c2cccc(O)c2C(O)=C2C(=O)[C@]3(O)C(O)=C(C(N)=O)C(=O)[C@@H](N(C)C)[C@@H]3[C@@H](O)[C@@H]21` [DOX, doxicycline], the cell density [1] was “some reduction in the cell density” and the “myc band in western blot” value [2] was “absent”.
